Test results: patent US20250382346A1, “NEURONAL PROMOTERS AND USES THEREOF” (priority 2023, published 2025)

How the values were obtained:
rM3Ds = target: T1, rM3Ds (Rattus norvegicus, UniProt P08483, A177S/A238G/A489L/DEL261-437/DEL441-478/E258S/I253V/I483M/INS256[…]/K178L/K182A/K255R/K484R/K486H/L173F/L482A/M480V/R171S/R176Q/R179M/S481M/T174R/T181R/T257A/Y148C); test: In vivo electrophysiological recording in caudate/putamen of anesthetized macaques, rM3Ds; parameters: 2A-EYFP (C); expressed in transfected cells; host or cells: neurons (striatal D1-MSNs) of mice or cynomolgus macaques, transduced in vivo by nigral AAV8R12-G88P7-rM3Ds-2A-EYFP
T1 sequence (P08483 with tags, fused parts or gaps Y148C/R171S/L173F/T174R/R176Q/A177S/K178L/R179M/T181R/K182A/A238G/I253V/K255R/INS256[…]/T257A/E258S/DEL261-437/DEL441-478/M480V/S481M/L482A/I483M/K484R/K486H/A489L): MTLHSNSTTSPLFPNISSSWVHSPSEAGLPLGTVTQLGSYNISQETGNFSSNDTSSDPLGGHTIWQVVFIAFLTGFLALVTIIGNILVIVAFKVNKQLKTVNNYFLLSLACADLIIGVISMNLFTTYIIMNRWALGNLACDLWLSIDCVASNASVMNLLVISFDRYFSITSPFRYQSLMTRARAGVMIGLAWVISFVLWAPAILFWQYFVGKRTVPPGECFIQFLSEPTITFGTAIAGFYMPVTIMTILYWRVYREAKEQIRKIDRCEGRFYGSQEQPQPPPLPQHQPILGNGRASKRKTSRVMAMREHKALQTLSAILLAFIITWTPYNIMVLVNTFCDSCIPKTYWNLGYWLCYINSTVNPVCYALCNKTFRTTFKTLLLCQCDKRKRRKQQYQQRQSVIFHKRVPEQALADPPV
Protocol: (§1) • Electrophysiological recording was performed through a recording chamber while the monkey was anesthetized. Neural responses were recorded by a 16-channel linear probe (Plexon Inc, Uprobe) driven by a mechanical microdrive (Alpha Omega, FlexMT). Signals were passed through a head stage (Plexon Inc, HST/16V-G20 LN) and then split and filtered between 300 Hz and 5 kHz to identify spiking activity with an amplifier system (Plexon Inc, OmniPlex). Detected spikes were then sorted by commercially available software (Plexon Inc, Offline Sorter) for further analysis. To quantify the effect of CNO/DCZ injection, neural activity was recorded for 60 minutes following CNO/DCZ injection. The response time-course for each channel was obtained by counting the spikes within every 10-minute window and then normalizing to the maximal.
(§2) To determine the effect of CNO/DCZ injection on the direction of signal change, we performed Pearson correlation between neural responses and time using the ‘corr’ function in Matlab, which generates the correlation coefficient ‘r’ and significant level ‘p’. A neuron was considered to have “Increased” activity when r>0 and p<0.05; and considered to have “Decreased” activity when r<0 and p<0.05. Otherwise, neurons were considered to be “Unchanged” in their neural activities. The responses of all increased neurons were then averaged after being normalized by the maximal response (Crowe et al., 2014; Dai and Wang, 2018; Hirokawa et al., 2019) following CNO/DCZ injection, and then plotted as a function of time to generate the normalized population response.
To enable in-vivo verification of the strategy via an opto-tagging approach, AAV virus encoding opsin ChR2 (AAV9-EF1α-DIO-ChR2-EYFP) was injected into the striatum with simultaneous nigral infusion of a retrograde AAV encoding Cre and rM3Ds (AAV8R12-G88P7-HA-rM3Ds-2A-Cre). A total volume of 27 μl (3 μl×9 sites) and 30 μl (3 μl×10 sites) were injected in the SNr and the striatum, respectively. A recording chamber was implanted above the striatum to allow optical stimulation and electrophysiological recording.
Optogenetic verification was conducted six weeks after virus injections. A 16-channel linear probe with an embedded optic fiber (Plexon Inc., Uprobe) was used to deliver light stimulation and record neural responses. A mechanical Microdrive (FlexMT, Alpha Omega, Nazareth, Israel) was used to mount and drive the probe. A blue laser (473 nm, Changchun New Industries Tech, MBL-III-473) was used to generate light stimulation, which was controlled by a DAQ board (National Instruments, PCIe-6321) through the MonkeyLogic toolbox (NIMH version).
Light pulses of 40 Hz that last for 500 ms were used to probe neurons' responses to optical stimulation. […] Responses from these optically identified cells were grouped to generate the normalized population response as a function of time.

hM3Dq = target: T2, hM3Dq (Homo sapiens, UniProt P20309, A239G/Y149C); test: In vivo electrophysiological recording in caudate of anesthetized macaques, hM3Dq
T2 construct: expressed in transfected cells; host or cells: neurons of C57BL/6J mice or of macaques, transduced in vivo by nigral AAV8R12-G88P3-HA-hM3Dq
T2 sequence (P20309 whole entry Y149C/A239G): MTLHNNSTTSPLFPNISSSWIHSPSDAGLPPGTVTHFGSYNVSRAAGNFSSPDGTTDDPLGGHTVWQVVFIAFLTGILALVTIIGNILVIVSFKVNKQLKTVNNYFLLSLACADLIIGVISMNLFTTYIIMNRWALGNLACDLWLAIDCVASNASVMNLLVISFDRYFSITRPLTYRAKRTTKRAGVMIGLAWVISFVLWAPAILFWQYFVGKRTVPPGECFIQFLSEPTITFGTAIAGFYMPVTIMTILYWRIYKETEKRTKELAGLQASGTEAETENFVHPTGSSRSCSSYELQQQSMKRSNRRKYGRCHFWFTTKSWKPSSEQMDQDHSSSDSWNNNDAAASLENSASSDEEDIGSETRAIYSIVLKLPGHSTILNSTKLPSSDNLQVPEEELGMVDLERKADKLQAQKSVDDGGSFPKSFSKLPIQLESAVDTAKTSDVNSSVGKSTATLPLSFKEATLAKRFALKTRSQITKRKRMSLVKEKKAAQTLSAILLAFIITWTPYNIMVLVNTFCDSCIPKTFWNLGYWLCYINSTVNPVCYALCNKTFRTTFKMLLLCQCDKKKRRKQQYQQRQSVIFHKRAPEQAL
Protocol: as §1, §2

[1] = monkey CM048, 38 cells, intramuscular CNO
[2] = 34 total cells, CNO infusions, saline 40.6%
[3] = monkey CM045, 34 cells, CNO infusion into dorsomedial caudate

C[N+]1([O-])CCN(C2=Nc3cc(Cl)ccc3Nc3ccccc32)CC1 [CNO, Clozapine-N-oxide]
cells in caudate/putamen activated (FIG. 12N) (rM3Ds; 38 total cells, CNO administrations, saline 20%): 50%
cells in caudate/putamen unchanged (FIG. 12N) (rM3Ds; 38 total cells, CNO administrations, saline 26.7%): 36.8%
cells in caudate/putamen inactivated (FIG. 12N) (rM3Ds; 38 total cells, CNO administrations, saline 53.3%): 13.2%
neuronal activity of opto-tagged retrogradely labeled D1-MSNs (rM3Ds; AAV8R12-G88P7-HA-rM3Ds-2A-Cre plus AAV9-EF1α-DIO-ChR2-EYFP, intramuscular CNO, anesthetized macaques): effectively induced an increase of neuronal activity in retrogradely labeled D1-MSNs
cells in caudate/putamen activated (FIG. 15G) (rM3Ds; MPP+ lesioned macaques, CNO 36 cells, DCZ 31 cells, saline 17.9%): 52.8%
cells in caudate/putamen inactivated (FIG. 15G) (rM3Ds; MPP+ lesioned macaques, CNO 36 cells, DCZ 31 cells, saline 33.4%): 13.9%
cells in caudate/putamen unchanged (FIG. 15G) (rM3Ds; MPP+ lesioned macaques, CNO 36 cells, DCZ 31 cells, saline 48.7%): 33.3%
cells in caudate activated (FIG. 12F) (rM3Ds; [1]): 65.8%
cells in caudate inactivated (FIG. 12F) (rM3Ds; [1]): 7.9%
cells in caudate unchanged (FIG. 12F) (rM3Ds; [1]): 26.3%
cells in caudate activated (FIG. 12L) (hM3Dq; 34 total cells, CNO infusions, saline 18.8%): 67.6%
cells in caudate inactivated (FIG. 12L) (hM3Dq; [2]): 2.9%
cells in caudate unchanged (FIG. 12L) (hM3Dq; [2]): 29.4%
cells in caudate activated (FIG. 12C) (hM3Dq; [3]): 70.6%
cells in caudate inactivated (FIG. 12C) (hM3Dq; [3]): 8.8%
cells in caudate unchanged (FIG. 12C) (hM3Dq; [3]): 20.6%
